{"source": "ChEMBL document CHEMBL5376011", "about": "“Discovery of Anti-Hypercholesterolemia Agents Targeting LXRα from Marine Microorganism-Derived Natural Products” (J Nat Prod, 2024)", "key": {"[1]": {"target": "T1, Oxysterols receptor LXR-alpha (Homo sapiens) (UniProt Q13133)", "T1 sequence (whole entry)": "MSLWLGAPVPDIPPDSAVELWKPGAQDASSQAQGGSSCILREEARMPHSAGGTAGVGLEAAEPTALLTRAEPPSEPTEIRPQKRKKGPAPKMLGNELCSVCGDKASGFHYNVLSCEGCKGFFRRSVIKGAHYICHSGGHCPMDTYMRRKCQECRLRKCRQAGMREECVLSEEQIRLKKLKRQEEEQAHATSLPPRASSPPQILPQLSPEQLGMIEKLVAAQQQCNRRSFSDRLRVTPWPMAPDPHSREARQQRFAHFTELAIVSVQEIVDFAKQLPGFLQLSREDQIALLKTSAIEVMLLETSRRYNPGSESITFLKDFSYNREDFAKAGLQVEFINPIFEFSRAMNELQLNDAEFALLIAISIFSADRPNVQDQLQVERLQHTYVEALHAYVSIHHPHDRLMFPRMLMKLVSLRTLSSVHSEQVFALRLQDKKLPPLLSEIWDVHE", "experiment": "Agonist activity at LXRalpha in human HepG2 cells assessed as upregulation of ABCA1 protein expression level at 25 uM incubated for 24 hrs by Western blot analysis", "type": "cell-based", "conditions": "filed as agonist"}, "[2]": {"target": "T1, Oxysterols receptor LXR-alpha (Homo sapiens)", "experiment": "Agonist activity at LXRalpha in human HepG2 cells assessed as upregulation of ABCA1 mRNA expression by measuring fold change at 25 uM incubated for 24 hrs by RT-qPCR analysis", "type": "cell-based", "conditions": "filed as agonist"}, "[3]": {"target": "T1, Oxysterols receptor LXR-alpha (Homo sapiens)", "experiment": "Agonist activity at LXRalpha in human HepG2 cells assessed as upregulation of CYP7A1 mRNA expression by measuring fold change at 25 uM incubated for 24 hrs by RT-qPCR analysis", "type": "cell-based", "conditions": "filed as agonist"}, "HepG2 [4]": {"system": "HepG2", "experiment": "Effect on LXRbeta mRNA expression in human HepG2 cells at 25 uM incubated for 24 hrs by RT-qPCR analysis", "type": "functional, cell-based"}, "HepG2 [5]": {"system": "HepG2", "experiment": "Effect on ABCG1 mRNA expression in human HepG2 cells at 25 uM incubated for 24 hrs by RT-qPCR analysis", "type": "functional, cell-based"}, "[6]": {"experiment": "Cytotoxicity against human HepG2 cells assessed as reduction in cell viability incubated for 24 hrs by CCK8 assay", "type": "toxicity, cell-based"}, "[7]": {"target": "T1, Oxysterols receptor LXR-alpha (Homo sapiens)", "experiment": "Agonist activity at LXRalpha in human HepG2 cells assessed as upregulation of CYP7A1 protein expression level at 25 uM incubated for 24 hrs by Western blot analysis", "type": "cell-based", "conditions": "filed as agonist"}, "[8]": {"target": "T2, Oxysterols receptor LXR-alpha (Homo sapiens, UniProt Q13133)", "T2 sequence (Q13133 whole entry)": "T1 sequence (whole entry)", "experiment": "Binding affinity to full length human LXRalpha assessed as dissociation constant by SPR analysis"}, "HepG2 [9]": {"system": "HepG2", "experiment": "Improvement of lipid metabolism in palmitic acid and oleic acid induced human HepG2 cell model of hepatic steatosis assessed as reduction in lipid droplets at 25 uM preincubated with palmitic acid and oleic acid for 48 hrs followed by compound addition and measured after 24 hrs by Oil Red O staining based analysis", "type": "functional"}, "HepG2 [10]": {"system": "HepG2", "experiment": "Improvement of lipid metabolism in palmitic acid and oleic acid induced human HepG2 cell model of hepatic steatosis assessed as reduction in total cellular cholesterol level at 25 uM preincubated with palmitic acid and oleic acid for 48 hrs followed by compound addition and measured after 24 hrs", "type": "functional, cell-based"}, "HepG2 [11]": {"system": "HepG2", "experiment": "Improvement of lipid metabolism in palmitic acid and oleic acid induced human HepG2 cell model of hepatic steatosis assessed as reduction in triglyceride level at 25 uM preincubated with palmitic acid and oleic acid for 48 hrs followed by compound addition and measured after 24 hrs", "type": "functional, cell-based"}, "Mus musculus [12]": {"system": "Mus musculus", "experiment": "Antihypercholesterolemic activity against high cholesterol diet fed C57BL/6J mouse assessed as improvement in hepatocyte degeneration at 300 microg/kg, ip administered every 2 days for 15 days by H&E staining based analysis", "type": "functional, organism-based", "conditions": "dose 300.0 µg/kg, time 15.0 day"}, "Mus musculus [13]": {"system": "Mus musculus", "experiment": "Antihypercholesterolemic activity against high cholesterol diet fed C57BL/6J mouse assessed as reduction of fine vacuoles in the cytoplasm at 300 microg/kg, ip administered every 2 days for 15 days by H&E staining based analysis", "type": "functional, organism-based", "conditions": "dose 300.0 µg/kg, time 15.0 day"}, "Mus musculus [14]": {"system": "Mus musculus", "experiment": "Antihypercholesterolemic activity against high cholesterol diet fed C57BL/6J mouse assessed as reduction in hepatocyte lysis necrosis at 300 microg/kg, ip administered every 2 days for 15 days by H&E staining based analysis", "type": "functional, organism-based", "conditions": "dose 300.0 µg/kg, time 15.0 day"}, "Mus musculus [15]": {"system": "Mus musculus", "experiment": "Antihypercholesterolemic activity against high cholesterol diet fed C57BL/6J mouse assessed as improvement in hepatocyte liposis at 300 microg/kg, ip administered every 2 days for 15 days by H&E staining based analysis", "type": "functional, organism-based", "conditions": "dose 300.0 µg/kg, time 15.0 day"}, "Mus musculus [16]": {"system": "Mus musculus", "experiment": "Antihypercholesterolemic activity against high cholesterol diet fed C57BL/6J mouse assessed as improvement in hepatocyte degeneration at 300 microg/kg, ip administered every 2 days for 15 days by Oil red staining based analysis", "type": "functional, organism-based", "conditions": "dose 300.0 µg/kg, time 15.0 day"}, "Mus musculus [17]": {"system": "Mus musculus", "experiment": "Antihypercholesterolemic activity against high cholesterol diet fed C57BL/6J mouse assessed as reduction of fine vacuoles in the cytoplasm at 300 microg/kg, ip administered every 2 days for 15 days by Oil red staining based analysis", "type": "functional, organism-based", "conditions": "dose 300.0 µg/kg, time 15.0 day"}, "Mus musculus [18]": {"system": "Mus musculus", "experiment": "Antihypercholesterolemic activity against high cholesterol diet fed C57BL/6J mouse assessed as reduction in hepatocyte lysis necrosis at 300 microg/kg, ip administered every 2 days for 15 days by Oil red staining based analysis", "type": "functional, organism-based", "conditions": "dose 300.0 µg/kg, time 15.0 day"}, "Mus musculus [19]": {"system": "Mus musculus", "experiment": "Antihypercholesterolemic activity against high cholesterol diet fed C57BL/6J mouse assessed as improvement in hepatocyte liposis at 300 microg/kg, ip administered every 2 days for 15 days by Oil red staining based analysis", "type": "functional, organism-based", "conditions": "dose 300.0 µg/kg, time 15.0 day"}, "Mus musculus [20]": {"system": "Mus musculus", "experiment": "Antihypercholesterolemic activity against high cholesterol diet fed C57BL/6J mouse assessed as reduction in degree of hepatic steatosis at 300 microg/kg, ip administered every 2 days for 15 days by Oil red staining based analysis", "type": "functional, organism-based", "conditions": "dose 300.0 µg/kg, time 15.0 day"}, "Mus musculus [21]": {"system": "Mus musculus", "experiment": "Antihypercholesterolemic activity against high cholesterol diet fed C57BL/6J mouse assessed as reduction in degree of hepatic steatosis at 300 microg/kg, ip administered every 2 days for 15 days by H&E staining based analysis", "type": "functional, organism-based", "conditions": "dose 300.0 µg/kg, time 15.0 day"}}, "note": "Calls of active or inactive are those of the source. The rule behind the calls is not given here.", "data": [{"compound": "COc1ccc2c3c([nH]c2c1)[C@H](C=C(C)C)N1C(=O)[C@@H]2CCCN2C(=O)[C@]1(O)[C@H]3O", "values": [{"measurement": "Activity", "setting": "[1]", "value": "Active"}, {"measurement": "fold change (FC)", "setting": "[2]", "value": 2.13}, {"measurement": "fold change (FC)", "setting": "[3]", "value": 5.02}, {"measurement": "Activity", "setting": "HepG2 [4]", "value": "inactive"}, {"measurement": "Activity", "setting": "HepG2 [5]", "value": "inactive"}, {"measurement": "IC50 at 24 h", "setting": "[6]", "value": "> 50000", "unit": "nM"}, {"measurement": "Activity", "setting": "[7]", "value": "Active"}, {"measurement": "Kd", "setting": "[8]", "value": 5.6, "unit": "nM"}, {"measurement": "Activity", "setting": "HepG2 [9]", "value": "Active"}, {"measurement": "Activity", "setting": "HepG2 [10]", "value": "Active"}, {"measurement": "Activity", "setting": "HepG2 [11]", "value": "Active"}, {"measurement": "Activity", "setting": "Mus musculus [12]", "value": "Active"}, {"measurement": "Activity", "setting": "Mus musculus [13]", "value": "Active"}, {"measurement": "Activity", "setting": "Mus musculus [14]", "value": "Active"}, {"measurement": "Activity", "setting": "Mus musculus [15]", "value": "Active"}, {"measurement": "Activity", "setting": "Mus musculus [16]", "value": "Active"}, {"measurement": "Activity", "setting": "Mus musculus [17]", "value": "Active"}, {"measurement": "Activity", "setting": "Mus musculus [18]", "value": "Active"}, {"measurement": "Activity", "setting": "Mus musculus [19]", "value": "Active"}, {"measurement": "Activity", "setting": "Mus musculus [20]", "value": "Active"}, {"measurement": "Activity", "setting": "Mus musculus [21]", "value": "Active"}]}]}
